Experimental data taken from US20250011311A1, “AMIDO HETEROAROMATIC COMPOUNDS” (AstraZeneca AB, priority 2022, published 2025).

Assays:
[1] = test system: human hepatocytes; assay: Assay A: Metabolic Stability in Human Hepatocytes; type: in vitro ADME; conditions: cryopreserved human hepatocytes, 10^6 viable cells/mL, 1 μM compound, 37° C.
Procedure, shortened: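 Cryopreserved hepatocytes (10^6 viable cells/mL) at 37° C with 1 μM test compound, sampled 0.5–120 min and quenched in MeCN. Parent measured by LC-MS/MS; CLint (μL/min/10^6 cells) from the slope of ln(parent concentration) vs time.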

[2] = biological target: over expressed HSD17β13 in HEK293S cells (Homo sapiens (Human), UniProt Q7Z5P4); assay: In Vitro 17bHSD13 Cell Assay; type: cell-based; conditions: HEK293S cells over expressing HSD17β13; estradiol to estrone conversion, 18 h, LC-MS/MS; read-out: 17bHSD1713 Cell assay IC50
Chain of over expressed HSD17β13 in HEK293S cells (Q7Z5P4 20-300): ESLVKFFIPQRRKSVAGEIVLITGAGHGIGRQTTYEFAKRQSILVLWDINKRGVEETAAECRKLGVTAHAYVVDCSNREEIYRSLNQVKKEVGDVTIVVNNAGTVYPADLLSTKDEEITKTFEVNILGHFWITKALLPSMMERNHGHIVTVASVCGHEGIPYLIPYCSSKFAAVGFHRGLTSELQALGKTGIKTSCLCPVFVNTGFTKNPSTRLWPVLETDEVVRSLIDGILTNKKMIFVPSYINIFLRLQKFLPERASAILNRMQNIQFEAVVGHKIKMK
Procedure, shortened: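 HEK293S cells overexpressing HSD17β13 convert estradiol to estrone; product read by LC-MS/MS (APCI, positive MRM) as AUC ratio estrone/(estrone+estradiol). Effect normalised between DMSO and maximal inhibition by a known inhibitor control; IC50 from curve fit.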

[3] = biological target: recombinant 17bHSD13 (N2-K300) (Homo sapiens (Human), UniProt Q7Z5P4); assay: In Vitro 17bHSD13 Enzyme Assay; type: biochemical; conditions: 80 nM 17bHSD13, 0.5 mM NAD, 20 μM Estradiol, 2.5 h; estradiol to estrone by LC-MS/MS
Chain of recombinant 17bHSD13 (N2-K300) (Q7Z5P4 2-300): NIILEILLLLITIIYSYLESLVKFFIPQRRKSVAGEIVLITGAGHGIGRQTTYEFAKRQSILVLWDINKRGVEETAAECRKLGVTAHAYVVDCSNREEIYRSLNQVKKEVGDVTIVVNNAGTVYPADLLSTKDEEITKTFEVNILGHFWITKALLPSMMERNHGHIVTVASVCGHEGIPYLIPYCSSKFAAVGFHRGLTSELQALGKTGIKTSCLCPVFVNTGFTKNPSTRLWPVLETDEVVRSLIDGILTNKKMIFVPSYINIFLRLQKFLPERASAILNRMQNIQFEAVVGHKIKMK
Procedure, shortened: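 Human 17bHSD13 (N2-K300, 80 nM) with 0.5 mM NAD, 20 μM estradiol and varied compound in 50 mM Tris-Cl pH 7.4, 5 mM EDTA, 0.01% DDM. Estrone/(estrone+estradiol) ratio read by LC-MS/MS (APCI, positive MRM). Inhibition normalised to DMSO and a known-inhibitor control; IC50 from curve fit.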

[4] = biological target: recombinant 17bHSD4 (M1-N311) (Homo sapiens (Human), UniProt P51659); assay: In Vitro 17bHSD4 Enzyme Assay; type: biochemical; conditions: 40 nM 17bHSD4, 0.125 mM NAD, 15 μM Estradiol, 1.5 h; NADH fluorescence; read-out: 17HSD17b4 Enzyme assay IC50
Chain of recombinant 17bHSD4 (M1-N311) (P51659 1-311): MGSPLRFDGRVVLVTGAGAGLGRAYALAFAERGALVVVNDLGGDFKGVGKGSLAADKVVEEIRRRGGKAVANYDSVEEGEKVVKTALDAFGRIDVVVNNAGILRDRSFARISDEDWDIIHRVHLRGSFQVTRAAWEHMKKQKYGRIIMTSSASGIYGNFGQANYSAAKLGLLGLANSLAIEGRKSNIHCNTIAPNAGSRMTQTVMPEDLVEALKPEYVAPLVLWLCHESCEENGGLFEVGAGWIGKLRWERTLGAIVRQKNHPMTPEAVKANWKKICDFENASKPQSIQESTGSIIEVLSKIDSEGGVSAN

[5] = biological target: CYP2C9 (Homo sapiens (Human), UniProt P11712); assay: Assay B: Cytochrome P450 Inhibition 2C9
Chain of CYP2C9 (P11712 whole entry): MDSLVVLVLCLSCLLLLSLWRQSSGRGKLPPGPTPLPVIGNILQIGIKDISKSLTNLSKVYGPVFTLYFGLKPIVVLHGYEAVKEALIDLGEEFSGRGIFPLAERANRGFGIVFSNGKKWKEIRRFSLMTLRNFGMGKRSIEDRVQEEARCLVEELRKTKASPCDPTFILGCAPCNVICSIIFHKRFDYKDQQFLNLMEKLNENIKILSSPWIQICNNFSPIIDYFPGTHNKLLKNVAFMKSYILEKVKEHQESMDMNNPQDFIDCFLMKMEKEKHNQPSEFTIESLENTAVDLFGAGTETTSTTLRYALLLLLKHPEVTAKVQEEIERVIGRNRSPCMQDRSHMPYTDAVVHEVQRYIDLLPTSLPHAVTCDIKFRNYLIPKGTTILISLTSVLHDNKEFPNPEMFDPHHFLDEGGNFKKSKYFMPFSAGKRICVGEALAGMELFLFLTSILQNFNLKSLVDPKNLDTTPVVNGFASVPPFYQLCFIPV
Protocol: A fluorescence-based method in 96-well format was used to determine the inhibition of 2C9 (Crespi, C. L. et al., Microtiter plate assays for inhibition of human, drug-metabolizing cytochromes P450. Anal Biochem 1997, 248 (1), 188-190. DOI: 10.1006/abio.1997.2145, which is incorporated herein by reference). The recombinant human enzymes used were prepared in house, except for CYP2D6 (CYPEX LTD, Dundee, UK). Different coumarin substrates, biotransformed into fluorescent metabolites, were used as probes for each individual CYP. A fluorescence plate reader (SPECTRAMAX GEMINIXS, MOLECULAR DEVICES, Sunnyvale, California, USA) was used to measure the levels of metabolites formed. A dilution series of the test substrates was prepared at eight different concentrations. For each CYP, a mixture of the enzyme, corresponding coumarin substrate, potassium phosphate buffer pH 7.4 and water (concentrations and volumes were CYP-dependent) were added to each well in a black 96-well plate. The test substrates at different concentrations were added. After 10 min pre-incubation, the co-factor NADPH was added to initiate the reaction. After 20-50 min (CYP and substrate-dependent) the reaction was terminated by addition of trisbase/MeCN (20:80). The plates were transferred to the fluorescence plate reader where the wavelengths were set individually for the different coumarin substrates and their respective fluorescent metabolite. The responses were exported to Excel where the IC50 curves were plotted (percent inhibition versus concentration) and IC50 values calculated for each test substrate and enzyme using XL-fit.

IC50 [2] [nM]	IC50 [3] [nM]	IC50 [4] [nM]	IC50 [5] [nM]	SMILES	Assay A: Human Heps Met Clint GMean CLint (μl/min/1E6) [1] [μl/min/1E6]
90	82	> 50000	15400	O=C(c1noc(-c2cc(F)c(F)c(O)c2F)n1)N1CCOC2CCCC21 (stereo not shown) [Example 41, (Hexahydrocyclopenta[b][1,4]oxazin-4(4aH)-yl)(5-(2,4,5-trifluoro-3-hydroxyphenyl)-1,2,4-oxadiazol-3-yl)methanone]	5.9
230	183	47400	1000	CC(C)CC1CN(C(=O)c2noc(-c3cc(F)c(F)c(O)c3F)n2)CCO1 (stereo not shown) [Example 47, (2-Isobutylmorpholino)(5-(2,4,5-trifluoro-3-hydroxyphenyl)-1,2,4-oxadiazol-3-yl)methanone]	17.4
220	499	> 50000	17200	C[C@@H]1CN(C(=O)c2noc(-c3cc(F)c(F)c(O)c3F)n2)[C@H](C)CO1 [Example 50, ((2R,5R)-2,5-Dimethylmorpholino)(5-(2,4,5-trifluoro-3-hydroxyphenyl)-1,2,4-oxadiazol-3-yl)methanone]	4.3
240	339	39000	13900	O=C(c1noc(-c2cc(F)c(F)c(O)c2F)n1)N1CC2CCC(C1)C2(F)F [Example 43, (8,8-difluoro-3-azabicyclo[3.2.1]octan-3-yl)(5-(2,4,5-trifluoro-3-hydroxyphenyl)-1,2,4-oxadiazol-3-yl)methanone]	3.3
100	211	45300	4200	O=C(c1noc(-c2cc(F)c(F)c(O)c2F)n1)N1CCO[C@@H]2CCC[C@@H]21 [Example 113, ((4aS,7aR)-Hexahydrocyclopenta[b][1,4]oxazin-4(4aH)-yl)(5-(2,4,5-trifluoro-3-hydroxyphenyl)-1,2,4-oxadiazol-3-yl)methanone]	7.3
90	234	39900	4900	CC1CN(C(=O)c2noc(-c3cc(F)c(F)c(O)c3F)n2)CC(C)(C)O1 (stereo not shown) [Example 117, (5-(2,4,5-Trifluoro-3-hydroxyphenyl)-1,2,4-oxadiazol-3-yl)(2,2,6-trimethylmorpholino)methanone]	4.2
60	285	> 200000	15400	C[C@@H]1CN(C(=O)c2noc(-c3cc(F)c(F)c(O)c3F)n2)C[C@H](C)O1 [Example 87, ((2R,6S)-2,6-Dimethylmorpholino)(5-(2,4,5-trifluoro-3-hydroxyphenyl)-1,2,4-oxadiazol-3-yl)methanone]	2.7
3000	89	21100	1800	O=C(c1noc(-c2cc(F)c(F)c(O)c2F)n1)N1CC(c2ccc(F)cc2)C1 [Example 74, (3-(4-Fluorophenyl)azetidin-1-yl)(5-(2,4,5-trifluoro-3-hydroxyphenyl)-1,2,4-oxadiazol-3-yl)methanone]	14.4
100	154	> 50000	9800	O=C(c1noc(-c2cc(F)c(F)c(O)c2F)n1)N1CCO[C@H]2CCC[C@@H]21 [Example 115, ((4aS,7aS)-Hexahydrocyclopenta[b][1,4]oxazin-4(4aH)-yl)(5-(2,4,5-trifluoro-3-hydroxyphenyl)-1,2,4-oxadiazol-3-yl)methanone]	6.2
20	130	> 50000	7700	CC[C@H]1CN(C(=O)c2noc(-c3cc(F)c(F)c(O)c3F)n2)C[C@@H](C)O1 (racemic) [Example 121, rac-((2R,6S)-2-Ethyl-6-methylmorpholino)(5-(2,4,5-trifluoro-3-hydroxyphenyl)-1,2,4-oxadiazol-3-yl)methanone]	6.8
2750	1740	> 50000	12300	C[C@@H]1CN(C(=O)c2noc(-c3cc(F)c(F)c(O)c3F)n2)C[C@H](C)N1 [Example 119, ((3R,5S)-3,5-Dimethylpiperazin-1-yl)(5-(2,4,5-trifluoro-3-hydroxyphenyl)-1,2,4-oxadiazol-3-yl)methanone]	1.0

The remaining lines, values behind:

SMILES	IC50 [2] [nM]	IC50 [3] [nM]	IC50 [4] [nM]	IC50 [5] [nM]	Assay A: Human Heps Met Clint GMean CLint (μl/min/1E6) [1] [μl/min/1E6]
O=C(c1noc(-c2cc(F)c(F)c(O)c2F)n1)N1CC[C@@H](Oc2ccccc2)C1 [Example 98, (R)-(3-Phenoxypyrrolidin-1-yl)(5-(2,4,5-trifluoro-3-hydroxyphenyl)-1,2,4-oxadiazol-3-yl)methanone]	520	63	9500	800	26.7
O=C(c1noc(-c2cc(F)c(F)c(O)c2F)n1)N1CC[C@H](Oc2ccccc2)C1 [Example 93, (S)-(3-Phenoxypyrrolidin-1-yl)(5-(2,4,5-trifluoro-3-hydroxyphenyl)-1,2,4-oxadiazol-3-yl)methanone]	700	63	22200	1300	15.6
N#Cc1ccc2c(c1)CCN(C(=O)c1noc(-c3cc(F)c(F)c(O)c3F)n1)C2 [Example 31, 2-(5-(2,4,5-Trifluoro-3-hydroxyphenyl)-1,2,4-oxadiazole-3-carbonyl)-1,2,3,4-tetrahydroisoquinoline-6-carbonitrile]	1060	165	11500	5000	12.6
C[C@@H]1CN(C(=O)c2noc(-c3c(F)c(O)c(F)c(F)c3I)n2)C[C@H](C)O1 [Example 108, ((2S,6R)-2,6-Dimethylmorpholino)(5-(2,4,5-trifluoro-3-hydroxy-6-iodophenyl)-1,2,4-oxadiazol-3-yl)methanone]	490	80	> 50000	7000	8.8
O=C(c1noc(-c2cc(F)c(F)c(O)c2F)n1)N1CC[C@H](c2ccc(Cl)cc2)C1 [Example 95, (R)-(3-(4-Chlorophenyl)pyrrolidin-1-yl)(5-(2,4,5-trifluoro-3-hydroxyphenyl)-1,2,4-oxadiazol-3-yl)methanone]	210	53	6900	1100	12.9
O=C(c1noc(-c2cc(F)c(F)c(O)c2F)n1)N1CCN(CCCOc2ccc(F)cc2)CC1 [Example 57, (4-(3-(4-Fluorophenoxy)propyl)piperazin-1-yl)(5-(2,4,5-trifluoro-3-hydroxyphenyl)-1,2,4-oxadiazol-3-yl)methanone]	140	88	32300	3700	9.5
N#Cc1ccc2c(c1)CN(C(=O)c1noc(-c3cc(F)c(F)c(O)c3F)n1)CC2 [Example 86, 2-(5-(2,4,5-Trifluoro-3-hydroxyphenyl)-1,2,4-oxadiazole-3-carbonyl)-1,2,3,4-tetrahydroisoquinoline-7-carbonitrile]	540	102	8500	4000	12.3
C[C@@H]1CN(C(=O)c2cnc(-c3cc(F)c(F)c(O)c3F)s2)C[C@H](C)O1 [Example 120, ((2R,6S)-2,6-Dimethylmorpholino)(2-(2,4,5-trifluoro-3-hydroxyphenyl)thiazol-5-yl)methanone]	140	44	> 50000	12800	13.3
N#Cc1c(C(=O)N2CCN(CCCOc3ccc(F)cc3)CC2)noc1-c1cc(F)c(F)c(O)c1F [Example 14, 3-(4-(3-(4-Fluorophenoxy)propyl)piperazine-1-carbonyl)-5-(2,4,5-trifluoro-3-hydroxyphenyl)isoxazole-4-carbonitrile]	260	126	41400	1100	14.3
